Test results taken from PubChem BioAssay AID1053202 (The Scripps Research Institute Molecular Screening Center, 2014).
Calls of active or inactive are those of the source.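 How the source made its calls: active means Ki at or below 10 µM; inactive means Ki above 10 µM.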

Biological target: Fibrinogen beta chain (Homo sapiens) (UniProt P02675)
Test: inhibitors of Tn6 peptide binding to fibrin DD(E), late-stage follow-up, biochemical, fluorescence polarization, Ki, set 1 (AID 1053202)
Conditions: Purified DD(E), TRITC-Tn6 peptide displacement

Fibrinogen beta chain (Homo sapiens), sequence (P02675 whole entry, looked up): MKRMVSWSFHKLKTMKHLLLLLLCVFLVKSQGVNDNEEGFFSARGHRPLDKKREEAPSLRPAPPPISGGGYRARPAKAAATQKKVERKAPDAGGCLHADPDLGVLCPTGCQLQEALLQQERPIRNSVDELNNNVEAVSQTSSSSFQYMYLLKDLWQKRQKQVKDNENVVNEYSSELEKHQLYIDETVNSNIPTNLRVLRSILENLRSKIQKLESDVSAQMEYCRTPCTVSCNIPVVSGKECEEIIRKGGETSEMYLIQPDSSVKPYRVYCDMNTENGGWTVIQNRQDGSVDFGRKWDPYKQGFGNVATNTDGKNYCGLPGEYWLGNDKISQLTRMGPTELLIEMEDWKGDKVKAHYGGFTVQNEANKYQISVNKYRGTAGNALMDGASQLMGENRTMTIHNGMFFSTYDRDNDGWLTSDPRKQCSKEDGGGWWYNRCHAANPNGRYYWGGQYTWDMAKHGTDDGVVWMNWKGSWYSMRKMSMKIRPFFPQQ

Compound	Ki (protein 2 µM, probe 0.1 µM)	Ki (protein 1 µM, probe 0.05 µM)
C=CCn1c(SCc2nc3ccc(Cl)cc3n2CCO)nnc1-c1ccc(Cl)cc1	inactive	–
CCn1c(CSc2nnc(-c3ccncc3)n2CCOC)nc2cc(C(=O)O)ccc21	–	3.75 µM
CCCCn1c(CSc2nc3ccccc3[nH]2)nc2cc(S(N)(=O)=O)ccc21	inactive	–
CCn1c(CSc2nnc(-c3ccoc3C)o2)nc2cc(S(=O)(=O)N(C)C)ccc21	inactive	–
CCn1c(CSc2nccn2C)nc2cc(C(=O)O)ccc21	–	inactive
CCCCn1c(CSc2nnc(-c3ccccc3F)n2C)nc2cc(S(N)(=O)=O)ccc21	inactive	–
CCn1c(CSc2nncn2C)nc2cc(C(=O)O)ccc21	5.01 µM	–
CCn1c(CSc2nc3sc4c(c3c(=O)n2CCOC)CCCC4)nc2cc(C(=O)O)ccc21	inactive	–
CCn1c(CSc2nnc3ccccn23)nc2cc(C(=O)O)ccc21	–	2.3 µM
CCn1c(CSc2nc3ccccc3c(=O)n2-c2ccccc2F)nc2cc(C(=O)O)ccc21	inactive	–
COc1ccc2nc(SCc3nc4ccc(Cl)cc4n3CCO)[nH]c2c1	inactive	–
CCCn1c(SCc2nc3cc(C(=O)O)ccc3n2CC)nc2ccccc2c1=O	1.34 µM	–
CCn1c(CSc2nnc(Nc3ccccc3F)s2)nc2cc(C(=O)O)ccc21	2.82 µM	–
Nn1cc(-c2ccccc2)nc1SCc1nc2ccc(Cl)cc2n1CCO	inactive	–
CCCCn1c(CSc2n[nH]c(=O)n2CCC)nc2cc(S(N)(=O)=O)ccc21	inactive	–
CCn1c(CSc2ncn[nH]2)nc2cc(C(=O)O)ccc21	–	inactive
CCCCn1c(CSc2nnc(-c3ccco3)n2C)nc2cc(S(N)(=O)=O)ccc21	inactive	–
CCn1c(CSc2nccn2C)nc2cc(S(=O)(=O)N3CCCCC3)ccc21	5.1 µM	–
CCn1c(CSc2n[nH]c(N)n2)nc2cc(F)ccc21	inactive	–
CCn1c(CSc2nc(C3CC3)n(-c3ccccc3)n2)nc2cc(S(=O)(=O)N(C)C)ccc21	2.46 µM	–
CCn1c(CSc2nnnn2C(C)C)nc2cc(C(=O)O)ccc21	inactive	–

The remaining lines, values ahead:

Ki (protein 2 µM, probe 0.1 µM)	Ki (protein 1 µM, probe 0.05 µM)	Compound
inactive	–	CCCCn1c(CSc2nnc(-c3ccccc3F)n2N)nc2cc(S(N)(=O)=O)ccc21
–	5.1 µM	CCn1c(CSc2nnc(-c3ccncc3)n2C)nc2cc(C(=O)O)ccc21
inactive	–	CCn1c(CSc2ccc(NC(C)=O)cc2)nc2cc(C(=O)O)ccc21
inactive	–	C=CCNc1nnc(SCc2nc3cc(S(=O)(=O)N(C)C)ccc3n2CCC)s1
inactive	–	OCCn1c(CSc2nc3ccccc3o2)nc2ccc(Cl)cc21
inactive	–	CCn1c(CSc2nnnn2-c2ccccc2)nc2cc(C(=O)O)ccc21
4.57 µM	–	CCn1c(CSc2nc3ccccc3s2)nc2cc(C(=O)O)ccc21
–	inactive	OCCn1c(CSc2nnc(-c3ccc4c(c3)OCO4)o2)nc2ccc(Cl)cc21
inactive	–	Nc1nnc(SCc2nc3ccccc3[nH]2)s1
–	5.11 µM	CCn1c(CSc2n[nH]c(N)n2)nc2cc(C(=O)O)ccc21
inactive	–	CCn1c(CSc2ncnc3sc(C)c(C)c23)nc2cc(C(=O)O)ccc21
–	inactive	CCn1c(CSc2nc3ccccc3[nH]2)nc2cc(C(=O)O)ccc21
2.3 µM	–	CCn1c(CSc2nnc(N)s2)nc2cc(F)ccc21
5.1 µM	–	CCCn1c(SCc2nc3cc(S(=O)(=O)N4CCOCC4)ccc3n2CCC)n[nH]c1=O
inactive	–	CCn1c(CSc2n[nH]c(-c3ccccc3)n2)nc2cc(S(=O)(=O)N3CCCCC3)ccc21
5.6 µM	–	CCn1c(CSc2nnc(COc3ccc(OC)cc3)n2-c2ccccc2F)nc2cc(C(=O)O)ccc21
